# Measurements taken from ChEMBL document CHEMBL1141175, “Synthesis and antiviral evaluation of cis-substituted cyclohexenyl and cyclohexanyl nucleosides” (J Med Chem, 2005).
# Key:
# Coxsackievirus = test: Effective concentration required to inhibit Coxsackie B3 virus induced cytopathicity in vero cells; format: functional, organism-based
# Human alphaherpesvirus 1 = test: Effective concentration required to inhibit herpes simplex virus type 1 Kos strain induced cytopathicity in Hel cells; format: functional, organism-based; conditions: Human alphaherpesvirus 1, HEL
SMILES,EC50 (Coxsackievirus),EC50 (Human alphaherpesvirus 1)
Cc1cn([C@H]2C=CC[C@@H](CO)C2)c(=O)[nH]c1=O (racemic),> 200 µM,63 µM
Nc1ccn([C@H]2CCC[C@@H](CO)C2)c(=O)n1 (racemic),> 200 µM,62 µM
Nc1nc2c(ncn2COCCO)c(=O)[nH]1 [ACYCLOVIR],–,0.32 µM
Nc1nc2c(ncn2COC(CO)CO)c(=O)[nH]1 [GANCICLOVIR],–,0.06 µM

# Second part, the molecule after the results:
EC50 (Coxsackievirus),EC50 (Human alphaherpesvirus 1),SMILES
5.84 µM,–,N#Cc1cc([N+](=O)[O-])ccc1Oc1ccc(Cl)c(Cl)c1
> 200 µM,> 200 µM,Nc1nc(O)c2ncn([C@H]3C=CC[C@@H](CO)C3)c2n1 (racemic)
168 µM,> 200 µM,Cc1cn([C@H]2CCC[C@@H](CO)C2)c(=O)[nH]c1=O (racemic)
> 200 µM,> 200 µM,Nc1ccn([C@H]2C=CC[C@@H](CO)C2)c(=O)n1 (racemic)
> 200 µM,> 200 µM,Nc1ncnc2c1ncn2[C@H]1C=CC[C@@H](CO)C1 (racemic)
> 200 µM,> 200 µM,Nc1ncnc2c1ncn2[C@H]1CCC[C@@H](CO)C1 (racemic)
